According to paper PMC12118597 (Science Advances, 2025):
Values joined by “and” are separate entries in the source; they are usually repeats but may differ in a detail not shown here. Equal entries are not always repeated. “Also recorded” adds a separate entry of the source. Where two headings read alike, the source gives them in different places.

How the values were obtained:
[1] = molecular target: T1, SARS-CoV-2 NSP3 macrodomain (Mac1) (Severe acute respiratory syndrome coronavirus 2, UniProt P0DTD1); assay: biochemical; format: binding
[2] = molecular target: T1, SARS-CoV-2 NSP3 macrodomain (Mac1); format: binding; conditions: for 1-BDC: PanDDA background density correction; for 1-BDC (PanDDA run, DMSO background map): event 1; for Refined ligand occupancy (%): crystallographic refinement; for 2*(1-BDC) (%): occupancy estimate from PanDDA; for Phe132 loop open state: open state of Phe132 loop seen in the ligand-bound structure
[3] = HTRF binding curve, SARS-CoV-2 Mac1
[4] = SARS CoV-2 macrodomain HTRF assay, dose-response
[5] = crystal soak, 10 mM soak concentration, P43 crystal form
[6] = ligand-bound crystal structure obtained (TRUE)
[7] = site occupied in X-ray crystal structure
[8] = TRUE = crystal structure with ligand obtained
[9] = site of ligand in X-ray crystal structure
[10] = crystal soak concentration 10 mM
[11] = crystal soak concentration 10 mM, P43 crystals

| Compound | Hill slope [1, 3] | Hill slope [1, 4] | 1-BDC [2] | Hit (PanDDA run, DMSO background map) ([2]; crystal soak 10 mM) | 1-BDC (PanDDA run, DMSO background map) ([2]; crystal soak 10 mM) | Hit (PanDDA run, overall) [2, 5] | Refined ligand occupancy (%) [2] [%] | X-ray crystal structure [2, 6] | 2*(1-BDC) (%) [2] [%] | Binding site [2, 7] | Hit (PanDDA run, DMSO background map) [2, 10] | 1-BDC (PanDDA run, DMSO background map) [2, 10] | Hit (PanDDA run, overall) [2, 11] | Modeling comment (PanDDA run, overall) [2, 11] | other results |
| --- | --- | --- | --- | --- | --- | --- | --- | --- | --- | --- | --- | --- | --- | --- | --- |
| C[C@@H]1CCN(c2ncnc3[nH]ccc23)[C@H](CO)C1 [AVI-4064] | 1.2 | 1.2 | 0.19 | TRUE | 0.19 | TRUE | 38 | TRUE | 38 | Adenosine | – | – | – | – | – |
| O=C(O)C(F)(F)F.OC[C@H](Cc1ccc(O)cc1)Nc1ncnc2[nH]ccc12 [AVI-4066] | 1.1 | 1.1 | 0.2 | TRUE | 0.2 and 0.37 and 0.38 | TRUE | 50 | – | 40 | – | – | – | – | – | X-ray crystal structure [2, 8]: TRUE; Binding site [2, 9]: Adenosine |
| CC(C)(O)C1N(c2ncnc3[nH]ccc23)CCC1(C)C (stereo not drawn) [AVI-4126] | 1.3 | 1.3 | 0.16 | – | – | – | 40 | TRUE | 32 | Adenosine | TRUE | 0.17 and 0.16 | TRUE | Duplicate, not modeled | Modeled (PanDDA run, DMSO background map) [2, 10]: TRUE; Modeled (PanDDA run, overall) [2, 11]: TRUE; Phe132 loop open state [2]: TRUE |
| CC(C)(O)C1C2CCCCC2CN1c1ncnc2[nH]ccc12 (stereo not drawn) [AVI-4127] | 1.3 | 1.3 | 0.25 | – | – | – | 60 | TRUE | 50 | Adenosine | TRUE | 0.23 and 0.25 | TRUE | Duplicate, not modeled | Modeled (PanDDA run, DMSO background map) [2, 10]: TRUE; Modeled (PanDDA run, overall) [2, 11]: TRUE; Phe132 loop open state [2]: TRUE |
| CC(C)(O)C1C2CCC2CN1c1ncnc2[nH]ccc12 (stereo not drawn) [AVI-4128] | 1.2 | 1.2 | 0.2 | – | – | – | 60 | TRUE | 40 | Adenosine | TRUE | 0.27 and 0.2 | TRUE | Duplicate, not modeled; also recorded: Weak density for open conformation | Modeled (PanDDA run, DMSO background map) [2, 10]: TRUE; Modeled (PanDDA run, overall) [2, 11]: TRUE |
| Cc1c[nH]c2ncnc(NCC3(O)CCOCC3)c12 [AVI-4194, 4-(((5-methyl-7H-pyrrolo[2,3-d]pyrimidin-4-yl)amino)methyl)tetrahydro-2H-pyran-4-ol] | 1.3 | 1.3 | 0.09 | – | – | – | 18 | TRUE | 18 | Adenosine | TRUE | 0.13 and 0.09 | TRUE | Duplicate, not modeled | Modeled (PanDDA run, DMSO background map) [2, 10]: TRUE; Modeled (PanDDA run, overall) [2, 11]: TRUE |
| Cc1c[nH]c2ncnc(NCC3(O)CCSCC3)c12 [AVI-4195, 4-(((5-methyl-7H-pyrrolo[2,3-d]pyrimidin-4-yl)amino)methyl)tetrahydro-2H-thiopyran-4-ol] | 1.2 | 1.2 | 0.14 | – | – | – | 28 | TRUE | 28 | Adenosine | TRUE | 0.14 | TRUE | Duplicate, not modeled | Modeled (PanDDA run, DMSO background map) [2, 10]: TRUE; Modeled (PanDDA run, overall) [2, 11]: TRUE |
| CC1CCCC(O)(CNc2ncnc3[nH]ccc23)C1 (stereo not drawn) [AVI-4307] | 1.0 | 1.0 | 0.17 | TRUE | 0.17 | TRUE | 34 | TRUE | 34 | Adenosine | – | – | – | – | – |
| OC1(CNc2ncnc3[nH]ccc23)CCC(F)(F)CC1 [AVI-4308] | 1.2 | 1.2 | 0.15 | TRUE | 0.15 | TRUE | 30 | TRUE | 30 | Adenosine | – | – | – | – | – |
| OC1(CNc2ncnc3[nH]ccc23)CCCC(C(F)(F)F)C1 (stereo not drawn) [AVI-4309] | 1.4 | 1.4 | 0.2 | TRUE | 0.21 | TRUE | 40 | TRUE | 40 | Adenosine | – | – | – | – | – |
| CC1(C)CCC(O)(CNc2ncnc3[nH]ccc23)CC1 [AVI-4310] | 1.3 | 1.3 | – | TRUE | 0.14 | TRUE | – | – | – | – | – | – | – | – | Modeling comment (ligand density) ([2]; crystal soak 10 mM, PanDDA run, overall): Weak density, not modeled |
| OC1(CNc2ncnc3[nH]ccc23)CCCOC1 (stereo not drawn) [AVI-4311] | 1.4 | 1.4 | 0.25 | TRUE | 0.25 | TRUE | 50 | TRUE | 50 | Adenosine | – | – | – | – | – |
| CC1CCC(O)(CNc2ncnc3[nH]ccc23)CC1 (stereo not drawn) [AVI-4312] | 1.2 | 1.2 | 0.22 | – | – | – | 44 | TRUE | 44 | Adenosine | – | – | – | – | – |
| OC1(CNc2ncnc3[nH]ccc23)COC2CC1C2 (stereo not drawn) [AVI-4313] | 1.2 | 1.2 | 0.19 | – | – | – | 38 | TRUE | 38 | Adenosine | – | – | – | – | – |
| OC1(CNc2ncnc3[nH]ccc23)CCOCC1 [AVI-4314] | 1.2 | 1.2 | 0.15 | – | – | – | 30 | TRUE | 30 | Adenosine | – | – | – | – | – |
| O=S1(=O)CCCC(O)(CNc2ncnc3[nH]ccc23)C1 (stereo not drawn) [AVI-4317] | 1.2 | 1.2 | 0.43 | – | – | – | 100 | TRUE | 86 | Adenosine | – | – | – | – | – |
| CN(CC1(O)CCOCC1)c1ncnc2[nH]ccc12 [AVI-4318] | 1.2 | 1.2 | 0.25 | – | – | – | 50 | TRUE | 50 | Adenosine | – | – | – | – | – |
| OC1(CNc2ncnc3[nH]ccc23)CCSCC1 [AVI-4319] | 1.2 | 1.2 | 0.16 | – | – | – | 32 | TRUE | 32 | Adenosine | – | – | – | – | – |
| OC1(CNc2ncnc3[nH]ccc23)CC2CCC1CC2 (stereo not drawn) [AVI-4320] | 1.1 | 1.1 | 0.14 | – | – | – | 28 | TRUE | 28 | Adenosine | – | – | – | – | – |
| OC1(CNc2ncnc3[nH]ccc23)CCCSC1 (stereo not drawn) [AVI-4322] | 1.3 | 1.3 | 0.21 | – | – | – | 42 | TRUE | 42 | Adenosine | – | – | – | – | – |
| Cc1c[nH]c2ncnc(NCC3(O)CCC(C)(C)CC3)c12 [AVI-4330] | 1.3 | 1.3 | – | – | – | – | – | – | – | – | TRUE | 0.11 | TRUE | Weak density, not modeled | – |
| Cc1c[nH]c2ncnc(NCC3(O)CCC(C)CC3)c12 (stereo not drawn) [AVI-4331] | 1.2 | 1.2 | 0.27 | TRUE | 0.27 | – | 54 | TRUE | 54 | Adenosine | TRUE | 0.23 | TRUE | Duplicate, not modeled | Hit (PanDDA run, overall) ([2]; crystal soak 10 mM, P43 crystal form): TRUE |
| CC(C)(CO)Nc1ncnc2[nH]ccc12 [AVI-5266] | 1.1 | 1.1 | 0.12 | – | – | – | 40 | – | 24 | – | – | – | – | – | X-ray crystal structure [2, 8]: TRUE; Binding site [2, 9]: Adenosine |
